According to patent publication US20240270821A1, “GIP/GLP1/GCG TRI-RECEPTOR AGONISTS AND USES THEREOF” (priority 2023, published 2024):
Starred links: 1 amine or outer side, 2 acyl side, 3 side chain; linkers in the order of their positions; H or OH if unused. Non-standard residues stand in square brackets, D forms with d. Groups on a side chain read outwards from the residue. *: point of attachment. C18 diacid = O=C(O)CCCCCCCCCCCCCCCCC(=O)*; αMePhe(2-F) = C[C@](N)(Cc1ccccc1F)C(=O)O; γGlu = O=C(O)[C@H](CCC(=O)[*:2])N[*:1]; αMe4Pal = C[C@](N)(Cc1ccncc1)C(=O)O; αMeY = C[C@](N)(Cc1ccc(O)cc1)C(=O)O; 4Pal = N[C@@H](Cc1ccncc1)C(=O)O; αMeL = CC(C)C[C@](C)(N)C(=O)O; Orn = NCCC[C@H](N)C(=O)O; AEEA = NCCOCCOCC(=O)O; Aib = CC(C)(N)C(=O)O

Columns and labels:
Format in all cases: cell-based
hGLP-1R [1] = molecular target: T1, hGLP-1R (Homo sapiens, UniProt P43220); assay: Functional cAMP activity in the presence of 1% HSA; settings: read-out: cAMP Rel EC50, hGLP-1R
hGIPR [2] = molecular target: T2, hGIPR (Homo sapiens, UniProt P48546); assay: Functional cAMP activity in the presence of 1% HSA; settings: read-out: cAMP Rel EC50, hGIPR
T2 sequence (P48546 22-466): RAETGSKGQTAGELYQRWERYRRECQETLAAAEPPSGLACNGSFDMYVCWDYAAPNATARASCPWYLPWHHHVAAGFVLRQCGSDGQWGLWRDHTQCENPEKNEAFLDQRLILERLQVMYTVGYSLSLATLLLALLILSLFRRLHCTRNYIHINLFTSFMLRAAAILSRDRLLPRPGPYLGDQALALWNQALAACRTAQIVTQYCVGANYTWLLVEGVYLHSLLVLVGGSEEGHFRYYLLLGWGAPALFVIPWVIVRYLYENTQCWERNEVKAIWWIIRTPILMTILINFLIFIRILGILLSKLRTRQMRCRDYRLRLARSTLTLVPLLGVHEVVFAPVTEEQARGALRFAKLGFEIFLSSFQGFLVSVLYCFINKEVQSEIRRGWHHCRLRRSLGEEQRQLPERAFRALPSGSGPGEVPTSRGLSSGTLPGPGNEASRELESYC

human GcgR = human GcgR (Homo sapiens, UniProt P47871); assay: Functional cAMP activity in the presence of 1% HSA; settings: read-out: cAMP Rel EC50, hGcgR
hGLP-1R [3] = molecular target: T1, hGLP-1R; assay: Functional cAMP activation in the presence of 0.1% casein (no HSA); settings: read-out: Relative cAMP EC50, hGLP-1R;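 on Relative cAMP EC50, hGIPR: intracellular cAMP rise after 30 min at 37 °C read by HTRF against a standard curve, scaled between buffer alone (0%) and top control ligand concentration (100%), four-parameter fit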;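 on Relative cAMP EC50, hGLP-1R: intracellular cAMP rise after 30 min at 37 °C read by HTRF, normalized between buffer only (0%) and maximal control ligand (100%), four-parameter variable-slope fit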;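 on Relative cAMP EC50, hGcgR: intracellular cAMP rise after 30 min at 37 °C, read by HTRF against a cAMP standard curve, scaled from buffer only (0%) to maximal control ligand response (100%)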
hGIPR [4] = molecular target: T2, hGIPR; assay: as above; settings: read-out: Relative cAMP EC50, hGIPR
hGcgR = hGcgR (Homo sapiens, UniProt P47871); assay: as above; settings: read-out: Relative cAMP EC50, hGcgR;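 further: intracellular cAMP rise after 30 min at 37 °C, read by HTRF against a cAMP standard curve, scaled from buffer only (0%) to maximal control ligand response (100%)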
Chain of hGcgR (P47871 26-477): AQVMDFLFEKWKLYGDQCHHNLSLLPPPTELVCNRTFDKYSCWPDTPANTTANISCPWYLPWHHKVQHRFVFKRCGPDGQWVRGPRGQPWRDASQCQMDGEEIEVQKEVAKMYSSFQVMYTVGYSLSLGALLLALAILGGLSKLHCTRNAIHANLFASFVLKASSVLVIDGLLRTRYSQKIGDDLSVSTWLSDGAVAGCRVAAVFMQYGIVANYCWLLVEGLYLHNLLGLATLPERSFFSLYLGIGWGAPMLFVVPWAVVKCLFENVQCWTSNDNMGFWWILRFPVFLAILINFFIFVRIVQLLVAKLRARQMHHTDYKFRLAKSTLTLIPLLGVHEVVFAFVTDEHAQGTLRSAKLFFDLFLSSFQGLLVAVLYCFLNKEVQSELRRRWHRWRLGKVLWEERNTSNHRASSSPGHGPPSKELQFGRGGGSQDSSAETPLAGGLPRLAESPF

Chain of human GcgR (P47871 26-477): as above
T1 sequence (P43220 24-463): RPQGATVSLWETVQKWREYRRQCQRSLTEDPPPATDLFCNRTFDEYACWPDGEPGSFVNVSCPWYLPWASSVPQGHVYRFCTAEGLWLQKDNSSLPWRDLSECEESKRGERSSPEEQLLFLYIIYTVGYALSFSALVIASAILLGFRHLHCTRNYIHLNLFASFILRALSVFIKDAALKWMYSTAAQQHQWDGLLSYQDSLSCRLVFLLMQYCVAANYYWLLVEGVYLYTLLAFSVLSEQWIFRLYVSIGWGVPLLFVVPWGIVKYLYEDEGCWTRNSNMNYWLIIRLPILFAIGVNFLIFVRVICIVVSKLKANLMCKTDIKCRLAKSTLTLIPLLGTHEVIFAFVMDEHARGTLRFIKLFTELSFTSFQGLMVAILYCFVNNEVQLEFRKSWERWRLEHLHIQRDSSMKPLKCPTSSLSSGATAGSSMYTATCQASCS

Row | Substance | EC50 (hGLP-1R [1]) | EC50 (hGIPR [2]) | EC50 (human GcgR) | EC50 (hGLP-1R [3]) | EC50 (hGIPR [4]) | EC50 (hGcgR)
1 | H-Y[Aib]QGT[αMePhe(2-F)]TSD[4Pal]SI[αMeL]LD[Orn]K([AEEA-γGlu-C18 diacid])AQ[αMe4Pal][Orn]FI[dE][αMeY]LIEGGPSSGEPPPSGS-NH2 [Example 706] | 23.7 nM | 0.913 nM | 240 nM | 0.19 nM | 9.11 pM | 2.18 nM
2 | H-Y[Aib]QGT[αMePhe(2-F)]TSD[4Pal]SI[αMeL]LD[Orn]K([γGlu-γGlu-C18 diacid])AQ[αMe4Pal]EFI[dE][αMeY]LAEGGPSSGAPPPSGS-NH2 [Example 646] | 90.5 nM | 1.09 nM | 1260 nM | 2.58 nM | 33.6 pM | 23.1 nM
3 | H-Y[Aib]QGT[αMePhe(2-F)]TSD[4Pal]SI[αMeL]LD[Orn]K([γGlu-γGlu-C18 diacid])AQ[αMe4Pal]EFI[dE][αMeY]LIEGGPSSGAPPPSGE-NH2 [Example 616] | 28.9 nM | 0.467 nM | 734 nM | 0.29 nM | 7.27 pM | 6.58 nM
4 | H-Y[Aib]QGT[αMePhe(2-F)]TSD[4Pal]SI[αMeL]LD[Orn]K([γGlu-γGlu-C18 diacid])AQ[αMe4Pal]EFI[dE][αMeY]LLEGGPSSGAPPPSGE-NH2 [Example 617] | 67.4 nM | 0.643 nM | 547 nM | 0.534 nM | 8.49 pM | 4.56 nM
5 | H-Y[Aib]QGT[αMePhe(2-F)]TSD[4Pal]SI[αMeL]LD[Orn]K([γGlu-γGlu-C18 diacid])AQ[αMe4Pal]EFI[dE][αMeY]LQEGGPSSGAPPPSGS-NH2 [Example 647] | 36.1 nM | 0.691 nM | 1210 nM | 0.872 nM | 17.7 pM | 18.8 nM
6 | H-Y[Aib]QGT[αMePhe(2-F)]TSD[4Pal]SI[αMeL]LD[Orn]K([γGlu-γGlu-C18 diacid])AQ[αMe4Pal]EFI[dE][αMeY]LQEGGPSSGEPPPSGS-NH2 [Example 649] | 62.9 nM | 0.76 nM | 669 nM | 1.35 nM | 22.1 pM | 21.2 nM
7 | H-Y[Aib]QGT[αMePhe(2-F)]TSD[4Pal]SI[αMeL]LD[Orn]K([γGlu-γGlu-C18 diacid])AQ[αMe4Pal][Orn]FI[dE]YLIEGGPSSGEPPPEGT-NH2 [Example 541] | 38.7 nM | 1.28 nM | 520 nM | 0.74 nM | 21.3 pM | 4.26 nM
8 | H-Y[Aib]QGT[αMePhe(2-F)]TSD[4Pal]SI[αMeL]LD[Orn]K([γGlu-γGlu-C18 diacid])AQ[αMe4Pal][Orn]FI[dE][αMeY]LIEGGPSSGEPPPEAE-NH2 [Example 684] | 14.2 nM | 0.436 nM | 143 nM | 0.28 nM | 8.43 pM | 2.16 nM
9 | H-Y[Aib]QGT[αMePhe(2-F)]TSD[4Pal]SI[αMeL]LD[Orn]K([γGlu-γGlu-C18 diacid])AQ[αMe4Pal][Orn]FI[dE][αMeY]LIEGGPSSGEPPPEEG-NH2 [Example 681] | 14.2 nM | 0.395 nM | 104 nM | 0.257 nM | 6.63 pM | 1.35 nM
10 | H-Y[Aib]QGT[αMePhe(2-F)]TSD[4Pal]SI[αMeL]LD[Orn]K([γGlu-γGlu-C18 diacid])AQ[αMe4Pal][Orn]FI[dE][αMeY]LIEGGPSSGEPPPEGE-NH2 [Example 683] | 14.3 nM | 0.492 nM | 137 nM | 0.214 nM | 7.98 pM | 1.57 nM
11 | H-Y[Aib]QGT[αMePhe(2-F)]TSD[4Pal]SI[αMeL]LD[Orn]K([γGlu-γGlu-C18 diacid])AQ[αMe4Pal][Orn]FI[dE][αMeY]LIEGGPSSGEPPPEGTE-NH2 [Example 687] | 21.3 nM | 0.595 nM | 157 nM | 0.277 nM | 9.03 pM | 2.41 nM
12 | H-Y[Aib]QGT[αMePhe(2-F)]TSD[4Pal]SI[αMeL]LD[Orn]K([γGlu-γGlu-C18 diacid])AQ[αMe4Pal][Orn]FI[dE][αMeY]LIEGGPSSGEPPPEGTGE-NH2 [Example 688] | 19.5 nM | 0.61 nM | 182 nM | 0.304 nM | 8.81 pM | 2.06 nM
13 | H-Y[Aib]QGT[αMePhe(2-F)]TSD[4Pal]SI[αMeL]LD[Orn]K([γGlu-γGlu-C18 diacid])AQ[αMe4Pal][Orn]FI[dE][αMeY]LIEGGPSSGEPPPESE-NH2 [Example 685] | 18.7 nM | 0.497 nM | 160 nM | 0.308 nM | 8.09 pM | 2.18 nM
